“Also recorded” adds a separate entry of the source.
Assays:
PA-1 = experiment: Flow cytometry cell cycle distribution / DNA debris, PA-1; format: cell-based, human
Description: (§1) Three×10^5 cells were seeded in plastic tissue culture flasks. […] Control cultures received an appropriate volume of Kollidine-17P. […] The percentage of DNA debris in the sub-G0/G1 region was assessed using cytofluorometric techniques.
(§2) For flow cytometry studies, 1×10^6 PA-1, SKOV-3, or NIH-3T3 cells were incubated for 24 h in appropriate media containing serum. […] Control cultures for each cell line were incubated in media containing 40 μl of 5% Kollidon 17PF alone. Forty-eight hours later, all cells were harvested by trypsinization and prepared for cytofluorometric analysis by standard methods. For example, harvested cells were resuspended in ice cold phosphate-buffered saline at a final cell density of 2×10^6 cells/ml. The cells then were stained for 30 min at room temperature in the dark with a solution of 0.05 mg/ml propidium iodide, 0.6% Igepal, and 1% sodium citrate. Flow cytometry was performed by FACScan (Becton Dickinson, Plymouth, England) using the ModFit LT program (Becton Dickinson). Statistical analysis was performed with the Kruskal Wallis non-parametric ANOVA test followed by Dunn's multiple comparisons test using Instat.
Three×10^5 cells were seeded in plastic tissue culture flasks. […] Control cultures received an appropriate volume of Kollidine-17P. After an additional 48 h, cells were harvested, stained with propidium iodide, and cell cycle distribution assessed using cytofluorometric techniques. Each value represents the percentage of cells in the noted cell cycle phases and is the mean±SEM of three determinations.

[1] = test system: Bcl2-over expressing HL-60 cells; experiment: Apoptosis induction in Bcl2-over expressing HL-60 cells; format: cell-based, human
Description: Human leukemia HL-60 cells, which were genetically-engineered to resist apoptotic induction, were induced to apoptosis independently (downstream) of the bcl-2/bax (anti-death gene) point in the signal transduction cascade.

[2] = test system: activated human T-cell cultures; experiment: Cytotoxic and apoptotic activity in activated human T-cell cultures; format: cell-based
Description: (§3) This observation was confirmed using normal (non-tumor) primary cells derived from animals, which are known to be free of tumors.

[3] = test system: SKOV-3 human ovarian tumor xenografts; experiment: i.p. SKOV-3 human ovarian tumor xenografts in female nude mice; format: in vivo
Description: Fourteen days following the final Taurolidine injection, mice in all groups were sacrificed and the peritoneal cavity examined for the presence of tumors. Each experimental was repeated three times and the pooled number of animals in each group ranged from 15-21.
Fourteen days following the final Taurolidine injection, mice in all groups were sacrificed, i.p. ovarian tumor xenografts removed and tumor weighed. Each experiment was repeated three times and the pooled number of animals in each group ranged from 15-21. Each bar represents the mean (±SE) tumor weight of 15-21 animals. ***p≦0.001, ****p≦0.0001.
To evaluate therapeutic effectiveness, mice received a single intraperitoneal injection of 5×10^6 SKOV-3 cells in a volume of 0.5 ml. Immediately thereafter, mice were randomly divided into treatment groups of 7 animals. […] Control animals received 1 ml injections of 5% Kollidon 17PF alone. Animals were examined daily and body weight recorded twice weekly. […] The mean tumor weight for each treatment group was calculated and statistical analysis of differences in the mean tumor weight between treatment groups employed the Student's t-test. p-values of ≦0.05 were considered significant.

[4] = test system: MDR-transfected glioblastoma cells; experiment: Cytotoxicity in MDR-transfected glioblastoma cells; settings: dose of 50 μM
Description: The neoplastic cell lines used in the survey were standard tumor cell lines, e.g., PA1 human ovarian cell line, SKOV3 human ovarian cell line, HT29 human colon tumor cell line, DU145 human prostate tumor cell line, U251 human glioblastoma cell line, U251-MDR human glioblastoma cell line transfected with DNA encoding MDR, T98G human glioblastoma cell line, SP-1 human leukemia cell line, and Daudi human leukemia cell line.
Glioblastoma cells were transfected with a gene encoding multiple drug resistance (MDR).

SKOV-3 = experiment: Flow cytometry cell cycle distribution / DNA debris, SKOV-3; format: cell-based, human; settings: 48 h exposure
Description: as §1, with “techniques. Each bar represents the mean (±SE) of three determinations. **p≦0.01, ***p≦0.001, ****p≦0.0001” for “techniques.”
as §2, with “Statistical analysis was performed with the Kruskal Wallis non-parametric ANOVA test followed by Dunn's multiple comparisons test using Instat.” left out
Three×10^5 cells were seeded in plastic tissue culture flasks. […] After an additional 48 h, cells were harvested, stained with propidium iodide, and cell cycle distribution assessed using cytofluorometric techniques. […]

[5] = test system: normal murine bone marrow cultures; experiment: Cytotoxic and apoptotic activity in normal murine bone marrow cultures; format: cell-based
Description: as §3

PARP = experiment: Western-blot analysis of PARP cleavage, NIH-3T3 cells; format: cell-based, murine; settings: 24 h exposure to 50 or 100 μM
Description: Two×10^6 cells were seeded in 150 cm^2 tissue culture flasks. […] After an additional twenty-four hours, cells were harvested, cell number determined, and aliquots derived from equal cell numbers generated from each exposure condition. Total proteins from these whole cell lysates were separated by SDS-PAGE and transferred to nitrocellulose filters. Filters were then immunoblotted to detect intact PARP protein and cleavage fragments by using the clone C-2-10 mouse monoclonal anti-PARP antibody (Zymed Laboratories, San Francisco, Calif.). The resulting protein-antibody complexes were visualized by chemiluminescence techniques.
Western-blot analysis was used to assess of PARP cleavage. Two×10^6 cells were seeded into separate 75 cm^2 tissue culture flasks containing 20 ml of tissue culture media plus serum. […] Twenty-four hours after the addition of Taurolidine, cells were harvested, cell number determined, and aliquots containing an equal cell number were generated from each exposure condition. Total proteins from whole cell lysates generated from these aliquots were separated by SDS-PAGE and electrotransferred to nitrocellulose filters. Filters were then processed to detect intact PARP protein and cleavage fragments by using the clone C-2-10 mouse monoclonal anti-PARP antibody (Zymed Laboratories, San Francisco, Calif.). […]

[6] = Taurolidine-induced toxicity in athymic (nude) female mice; format: in vivo; settings: for mortality (%): i.p., three consecutive days, nude female mice
Description: Control animals received 1 ml injections of 5% Kollidon 17PF alone. Animals were examined daily and body weight recorded twice weekly. A reduction in body weight of greater than 10% was considered significant. The maximally tolerated dose (MTD) was considered to be the dose which produced ˜10% mortality.
During the injection regimen, and daily thereafter for 30 d, mice were weighed and examined. Experiments were repeated a minimum of three times and mortality and weight loss data pooled.

human cancer cell lines = experiment: Growth inhibition of human cancer cell lines, 3-day exposure; format: cell-based; settings: 72 h, read-out: concentration required to inhibit tumor cell growth (IC50)
Description: Parallel studies were carried out to assess whether disruption of cell adhesion played a role in the cytotoxic activity.

[7] = test system: TNF; interleukins 1, 6, and 10; VEGF; TGF; experiment: Angiogenesis factors in patients with metastatic colon cancer; format: in vivo, human; settings: treated subjects compared to subjects receiving placebo
Description: Patients with metastatic colon cancer were treated with taurolidine and several factors controlling angiogenesis were measured.

O=S1(=O)CCN(CN2CCS(=O)(=O)NC2)CN1 [Taurolidine, Bis-(1,1-dioxoperhydro-1,2,4-thiadiazinyl-4)methane]
cell cycle kinetics and distribution (PA-1; PA1, 24-hour exposure): significantly reduced the percentage of cells in both the S- and G2/M-phases | effect on cell cycle distribution (PA-1; PA-1, 48 h exposure, up to 100 μM): little effect on the cell cycle; also recorded: little effect on cell cycle distribution | DNA debris in the sub-G0/G1 region (PA-1; PA-1, 48 h exposure, 25-100 μM): significantly increased DNA debris; also recorded: resulted in the appearance of DNA debris | induction of apoptosis [1]: capable of inducing apoptosis, but with a delayed onset | induction of apoptosis [2]: did not produce cellular changes consistent with the induction of apoptosis | ascites formation ([3]; 20 mg/mouse/injection i.p. x 3 d starting on the day of tumor cell injection): no evidence of ascites formation | tumor formation and growth ([3]; 3 d 20 mg/mouse i.p. regimen, nude mice bearing i.p. human ovarian tumor xenografts): significant inhibition of both tumor formation and growth; also recorded: significantly inhibited tumor development and growth; also recorded: highly effective and inhibited tumor formation | tumor growth ([3]; single cycle initiated 5 d after tumor cell injection (established i.p. tumors)): significantly inhibiting tumor growth | mean tumor size in treated mice vs controls ([3]; therapy delayed for up to 3 d after tumor cell injection): significantly smaller than in controls | cytotoxicity [4]: Significant cytotoxicity | effect on cell cycle distribution (SKOV-3): reduced the percentage of cells in the G0/G1-phase and increased the percentage of cells in both S and G2/M; also recorded: concentration-dependent decrease in the percentage of cells in G0/G1 but increased the percentage of cells in both the S-phase and G2/M | DNA debris in the sub-G0/G1 region (SKOV-3; 25-100 μM): significantly increased DNA debris; also recorded: resulted in the appearance of DNA debris | concentrations required to inhibit cell proliferation ([5]; normal murine bone marrow): concentrations in the mM range | induction of apoptosis ([5]; normal murine bone marrow cultures): did not produce cellular changes consistent with the induction of apoptosis | PARP cleavage (PARP): little evidence of this proteolytic event | PARP cleavage (PARP; listed as taurolidine): PARP cleavage was not evident | mortality (%) ([6]; 10 mg/mouse/inj): 6% | mortality (%) ([6]; 20 mg/mouse/inj): 13% | mortality (%) ([6]; 25 mg/mouse/inj): 47% | mortality (%) ([6]; 30 mg/mouse/inj): 100% | tolerability ([6]; daily doses below 15 mg/mouse (˜650 mg/kg), 3 d i.p. bolus regimen): well-tolerated | IC50 (human cancer cell lines): 12.5 to 50 µM | factors controlling the growth of blood vessels (TNF; interleukins 1, 6, and 10; VEGF; TGF) [7]: found to be decreased

From patent US6964959B2, “Use of a methylol-containing compound to treat tumors” (Carter Wallace, Inc., priority 1999, dated 2005)
